Measurements published in patent publication US11850266B2, “Cardiomyocytes and compositions and methods for producing the same” (President and Fellows of Harvard College, priority 2019, dated 2023).
Entries after “also recorded” stand apart in the source; their conditions may differ.

What was measured:
Format in all cases: cell-based, human
[1] = tested on: iPSC-derived cardiomyocytes; assay: Spontaneous beating rate of cardiomyocytes
Description: The BJRiPS cell line was used to generate preliminary data. BJRiPS cells were differentiated into cardiomyocytes according to previously published protocols (6). After the onset of beating (around day 10), cardiomyocytes were treated with vehicle (DMSO) or different concentrations of rapamycin, Torin1, or Torin2 for different time periods. Beating rate was counted manually. Some cells were harvested after 5-7 days of treatment for flow cytometry analysis. Other cells were harvested after 7 days of treatment for qPCR.

[2] = tested on: GCaMP-derived cardiomyocytes; assay: Cardiomyocyte purity (% TNNT2+) in 3D suspension culture; details: Torin1 24 hours from day 9, assay day 10; ~70% TNNT2+ with the protocol
Description: Cardiomyocyte differentiation of iPSCs in suspension culture. The suspension differentiation protocol outlined by Kempf et al (79) will be used with some modifications. 30 ml and 125 ml disposable spinner flasks are set on a spinner plate capable of rotation speeds between 40-70 rpm placed in a 37° C., 5% CO2 incubator. Cells are seeded at 750,000 cells/ml and allowed to grow for 4 days in maintenance media until spheroids are approximately 300 μm in diameter, then differentiation is initiated with 7.5 μM CHIR99021. On day 2 of differentiation, CHIR is removed from the media and the Wnt pathway inhibitor IWP4 (5 μM) is added to the media, on day 4 of differentiation, IWP4 is removed from the media, and from day 7 onward, insulin is included in the media. […] Differentiation conditions will be optimized with all five cell lines (BJRiPS-A, DiPS 1016 SevA, GCaMP, Gibco, UCSD142i-86-1). Cardiomyocyte purity will be quantified with flow cytometry detecting TNNT2+ cells.
An example of a differentiation protocol for generating cardiomyocytes from iPSCs in suspension culture is detailed as follows. 30 ml and 125 ml disposable spinner flasks were used and were set on a spinner plate capable of rotation speeds between 40-70 rpm, where the spinner plate is placed in a 37° C., 5% CO2 incubator. […] Cardiomyocyte purity will be quantified with flow cytometry detecting TNNT2+ cells.

[3] = tested on: iPSC-derived cardiomyocytes; assay: Mitochondrial DNA to nuclear DNA ratio, MitoTracker and MitoProbe JC-1 assays
Description: The mitochondrial DNA to nuclear DNA ratio was quantified with qPCR. DNA was extracted from cardiomyocytes using the PureLink genomic DNA mini kit (Invitrogen). Primers for DNA to mitochondrial gene NADH dehydrogenase 1 (ND1) and nuclear gene lipoprotein lipase gene (LPL) were used (10).
Live iPSC-derived cardiomyocytes were stained using MitoTracker Green FM (Invitrogen) or the MitoProbe JC-1 assay kit (Invitrogen) according to the manufacturer's instructions. Cells were evaluated by flow cytometry and mean fluorescence intensity (MFI) of all live cells was quantified. For JC-1, the ratio of red to green MFI for vehicle versus Torin1-treated cells was quantified and normalized to control.

[4] = tested on: iPSC-derived cardiomyocytes; assay: NanoString PanCancer Pathways Panel gene expression; details: Torin1 200 nM 1 week, Gibco iPS-CMs, FIG. 7G
Description: Gene expression analysis was performed using NanoString technology which employs an optical counting method of fluorescently barcoded RNA according to the manufacturer's instructions. The nCounter PanCancer Pathways Panel was selected to provide a multiplex analysis of 770 genes from several growth and cell cycle-related pathways, including cell cycle, apoptosis, Wnt, transcriptional regulation, PI3K, and TGF-β. This panel was selected to provide a multiplex analysis of pathways associated with cell cycle regulation, metabolism, quiescence and senescence. Cardiomyocytes were differentiated in a 12-well plate then cardiomyocytes were treated with Torin1 (200 nM) or vehicle (DMSO) starting ˜2 days after onset of beating for 1 week (days 9-16 for this batch). After completion of Torin1 treatment, cells were switched back to maintenance media (RPMI+B27+insulin). Beginning on day 18 of differentiation, 10% fetal bovine serum (FBS) was added to half of the wells per treatment group and FBS treatment was continued for 4 days (until day 22 of differentiation). […] Data were analyzed using nSolver 4.0 software with the Advanced Analysis Module 2.0 with normalization to internal housekeeping genes including in the panel to perform unsupervised hierarchical clustering, differential expression analyses, and pathway scoring using the R statistical package.

[5] = Torin1 200 nM 7 days, BJRiPS-CMs

CCC(=O)N1CCN(c2ccc(-n3c(=O)ccc4cnc5ccc(-c6cnc7ccccc7c6)cc5c43)cc2C(F)(F)F)CC1 [Torin1]
spontaneous rate of contraction ([1]; Example 1, FIG. 4C): decrease
beating rate of cardiomyocytes ([1]; Torin1 10, 50, 200 nM, Torin2 200 nM, from day 11 for 4-5 days, FIG. 29): decreased the beating rate
beating rates at 1 week ([1]; dose-dependent, BJRiPS-CMs, FIG. 29): significantly decreased beating rates
% TNNT2+ cardiomyocyte purity in 3D suspension culture [2]: trend toward higher purity; also recorded: trend toward higher % TNNT2+ cells
MFI of MitoTracker by flow cytometry [3, 5]: decreased MFI
mitochondrial to nuclear DNA ratio [3, 5]: decreased
mitochondrial membrane polarization (MitoProbe JC-1 red:green ratio) ([3]; Torin1 1 week, FIG. 3E): significant increase in mitochondrial membrane polarization
expression of interleukin-8 (IL8) and SPP1 (osteopontin) [4]: significant decrease in expression
